Results on 1 compound are retold here after patent US12698141B2, “Methods for extracting and encapsulating phenolics from food waste, related compositions, and related articles” (BOARD OF TRUSTEES OF MICHIGAN STATE UNIVERSITY, priority 2019, dated 2026).

The series is described as follows: Release of quercetin in PBS solution from electrospun PLLA scaffold (spectrophotometer). The class given is physicochemical. To be noted: all three samples (quercetin:PLLA 1:16, 1:8, 1:4). On the procedure: Materials and Methods: For fabrication of the scaffolds, an electrospinning apparatus consisting of a high voltage power supply (PCM series, Spellman, NY, USA) was used for charging the polymer solution, a grounded aluminum roto-translating drum (4 mm outer diameter and 13 cm in length) was used for collecting fibers, and a syringe pump (KDS-100, KD Scientific, Holliston, MA, USA) was used for controlling feed flow rate. Rotation was at 750 rpm and translation velocity at 1000 mm/min. The fluid was pushed out from the syringe with a flow rate of 1.1 mL/h, throughout a 0.25 mm diameter needle with a potential difference of 17 kV. All the samples were obtained using about 1.5 mL of initial solution. The polymer solution was prepared with Poly (L-lactide), PLLA, in 1,1,1,3,3,3-Hexafluoro-2-propanol (HFP) 20% (w/v). Three different volumes of quercetin dihydrate in ethanol (5.5 mg/mL) were added to obtain three different quercetin/polymer ratio: 1:4, 1:8, 1:16. […] The mechanical properties of the scaffolds were measured using uniaxial tensile test. The release of quercetin in PBS solution from the scaffold was measured using spectrophotometer at different times up to 75 days. Growth inhibition activity of quercetin against Escherichia coli and Saccharomyces cerevisiae was also assessed.

The structures appear in SMILES notation.

In the case of `O=c1c(O)c(-c2ccc(O)c(O)c2)oc2cc(O)cc(O)c12` [quercetin], the “amount of quercetin released” value by setting is: (after 75 days of incubation at 4° C.) 50%; (after 75 days of incubation at 20° C.) 50%.
